Assay results: US9345691B2, “Beta-lactam compounds for enhancing T cell-mediated immune responses” (STEM CELL MEDICINE LTD., priority 2011, dated 2016)

Tests used:
[1] = test system: CD4+ human T cells; test: Human Autoimmune and Inflammatory Response Gene Array, anti-CD3 stimulated T cells; format: cell-based; settings: 120 min anti-CD3; for % increase by Amp.: ampicillin 50 μg/ml
Experimental: T cells were purified from the peripheral bloods of healthy human donors (Blood Bank, Sheba Medical center). The whole blood was incubated (20 min, 22° C.) with RosetteSep™ human T cell enrichment mixture (StemCell Technologies, Vancouver, Canada). The remaining unsedimented cells were then loaded onto lymphocyte separation medium (ICN Biomedicals, Irvine, Calif.), isolated by density centrifugation, and washed with PBS. […] In a second round of purification, CD3^+ T cells were labeled for selection with a magnetically coupled mAb against CD4 (Miltenyi Biotec, Auburn, Calif.).
Human CD4 T cells were isolated as described, and incubated in 24 well plates (Nunc), 4×10^6 cells/ml with plate bound anti-human CD3 (OKT3) at 2 μg/ml. The stimulation was performed in RPMI medium supplemented with 0.1% BSA. […] RNA was extracted from samples and used to prepare probes for gene array in accord with the manufacturer's instructions (SuperArray Bioscience, Frederick, Md.). Adequate labeling of the probes was tested before hybridization. Three healthy donors were tested in stimulation with cefuroxime. The membranes were analyzed online with the Image Data Acquisition and Expression Analysis (SuperArray Bioscience).
The Human Autoimmune and Inflammatory Response Gene Array (SuperArray Bioscience corporation, Frederick, Md., USA) was used for analysis of gene expression by the T cells. This array contains 367 genes including cytokines, chemokines and their receptors, transcription factors and signaling proteins. […] Analysis of the results was performed using the GEArray analysis program (www.SuperArray.com). […] To verify the results detected by the gene array study, a panel of six genes was designed and tested by real-time PCR: CCR4, ACVR2, JAK1, STAT4, TLR2 and NFKBIE. The cDNA that was used was prepared from the same RNA used for the gene array experiment.

[2] = test system: encephalitogenic BP10 T-cell line; test: Adoptive EAE by BP10 line stimulated in vitro with test substance; format: in vivo, rat; settings: BP10 line stimulated 3 days with MBP in presence of 50 μg/ml; 10^7 cells IP per rat
Text: The ability of a compound to enhance T cell activity may be determined, for example, using an in vivo assay testing the effect of a given compound on the severity of adoptive (passive) EAE, namely, EAE which is induced by the injection of activated encephalitogenic T cell line to the model animal. In order to test a compound, the encephalitogenic T cells are activated in the presence of the compound prior to injection. An exemplary procedure is described in the Examples section hereinbelow.
Antigen-specific T-cell lines were established from lymph node cells that had been stimulated with myelin basic protein (MBP; 10 μg/ml) for 3 days in stimulation medium as described below. Following stimulation, the T-cell blasts were isolated on Lympho-prep (Nycomed Pharma, Oslo, Norway) and seeded in propagation medium. Propagation medium was identical to stimulation medium without autologous serum, but supplemented with fetal calf serum 10% and T-cell growth factors from the supernatant of Con A stimulated spleen cells 10% (Mor et al. (1990) J Clin Invest, 85, 1594-1598). Animals were injected intra-peritoneally with 10^7 MBP-stimulated T cells, following 6-8 cycles of in vitro stimulations. It is known that MBP-reactive lines undergo a reduction in pathogenicity after 6 or more in vitro stimulations. In some experiments the BP10 line was stimulated with phorbol myristate acetate (PMA; 50 ng/ml) and ionomycin (500 ng/ml) for 3 days in stimulation medium, without antigen-presenting cells.
Active EAE was induced by subcutaneous injection of 25 μg guinea-pig MBP (GpMBP) in complete Freund's adjuvant (CFA). CFA was prepared by adding 4 mg/ml Mycobacterium tuberculosis H37Ra (Difco, Mich.) to incomplete Freund's adjuvant (IFA). Adoptive EAE was transferred by intra-peritoneal injection of guinea-pig MBP-activated cells of the BP10 line as described in Mor et al. (1993) J Clin Invest, 92, 2199-2206. […] Clinical scoring was: +1, paralysis of tail; +1.5, paresis of posterior paws and ataxia; +2, paraplegia; +3, paralysis extending to thoracic spine; +4, a moribund state.
Treatment with cefuroxime in vivo could affect many different host agents involved in EAE or AA as well as influencing the rats' bacterial flora. To test whether the antibiotic might directly modify the behavior of effector T cells, an encephalitogenic T-cell line was stimulated in the presence or absence of cefuroxime in vitro. The weakly encephalitogenic BP10 line was used, and was stimulated for 3 days with MBP in the presence or absence of cefuroxime (50 μg/ml). The activated T cells were then washed to remove the antibiotic, the T cells were injected intra-peritoneally into naïve recipient rats (10^7 per rat), and EAE was scored. The BP10 line at later stimulations was used, when its pathogenic potential is reduced, allowing to detect both suppression and enhancement of disease. […] To rule out antigen presenting cells (APC) as the target of the beta-lactam antibiotic, the encephalitogenic BP10 line was stimulated without APC using PMA (50 ng/ml) and Ionomycin (500 ng/ml) in the presence or absence of cefuroxime.

For CC1(C)S[C@@H]2[C@H](NC(=O)[C@H](N)c3ccccc3)C(=O)N2[C@H]1C(=O)O [ampicillin], the “number of the 57 cefuroxime-down-regulated genes up-regulated” value ([1]; 50 μg/ml) was 56 genes, the “% increase by Amp.” value ([1]; gene ACTB) was “+196%” and the “% increase by Amp.” value ([1]; gene ACVR1, A low expression) was “+53%”. For the same molecule, the “% increase by Amp.” value ([1]; gene ACVR2, A low expression) was “+85%”, the “% increase by Amp.” value ([1]; gene CCL5) was “+25%” and the “% increase by Amp.” value ([1]; gene CCL11) was “+107%”. The “% increase by Amp.” value ([1]; gene CCR4) was “+31%”, the “% increase by Amp.” value ([1]; gene CCR6) was “+83%” and the “% increase by Amp.” value ([1]; gene CCR7) was “+43%”. For the same molecule, the “% increase by Amp.” value ([1]; gene CD28) was “+175%”, the “% increase by Amp.” value ([1]; gene CD40LG) was “+67%” and the “% increase by Amp.” value ([1]; gene CREBBP) was “+49%”. The “% increase by Amp.” value ([1]; gene CXCL10) was “+25%”, the “% increase by Amp.” value ([1]; gene EGR3) was −25% and the “% increase by Amp.” value ([1]; gene GFI1) was “+10%”. The “% increase by Amp.” value ([1]; gene HRAS, A low expression) was −12%, the “% increase by Amp.” value ([1]; gene IL1B, A low expression) was “+64%” and the “% increase by Amp.” value ([1]; gene IL2RB) was “+93%”. For the same molecule, the “% increase by Amp.” value ([1]; gene IL2RG, A low expression) was “+78%”, the “% increase by Amp.” value ([1]; gene IL9R) was “No change” and the “% increase by Amp.” value ([1]; gene IL16, A low expression) was “+14%”. For the same molecule, the “% increase by Amp.” value ([1]; gene IRAK1) was “+171%”, the “% increase by Amp.” value ([1]; gene JAK1) was “+161%” and the “% increase by Amp.” value ([1]; gene JUN) was “+65%”. The “% increase by Amp.” value ([1]; gene LTA) was “+48.5%”, the “% increase by Amp.” value ([1]; gene MAP2K4) was “+150%” and the “% increase by Amp.” value ([1]; gene MAP3K1, A low expression) was “+63%”. For the same molecule, the “% increase by Amp.” value ([1]; gene MAP3K2) was “+93%”, the “% increase by Amp.” value ([1]; gene MAP3K7) was “+124%” and the “% increase by Amp.” value ([1]; gene MAPK9) was “+46%”. For the same molecule, the “% increase by Amp.” value ([1]; gene NFKB1) was “+31%”, the “% increase by Amp.” value ([1]; gene NFKB2) was “+195%” and the “% increase by Amp.” value ([1]; gene NFKBIE) was “+132%”. The “% increase by Amp.” value ([1]; gene NFKBIL1) was “+191%”, the “% increase by Amp.” value ([1]; gene PAK1) was “+111%” and the “% increase by Amp.” value ([1]; gene PIN1) was “+105%”. For the same molecule, the “% increase by Amp.” value ([1]; gene RANBP5) was “+108%”, the “% increase by Amp.” value ([1]; gene REL) was “+132%” and the “% increase by Amp.” value ([1]; gene RFX5) was “+137%”. The “% increase by Amp.” value ([1]; gene RFXAP) was “+131%”, the “% increase by Amp.” value ([1]; gene SDF2) was “+71%” and the “% increase by Amp.” value ([1]; gene SELL) was “+124%”. For the same molecule, the “% increase by Amp.” value ([1]; gene SMAD4) was “+85%”, the “% increase by Amp.” value ([1]; gene SMAD7, A low expression) was “+34%” and the “% increase by Amp.” value ([1]; gene SP3) was “+47%”. The “% increase by Amp.” value ([1]; gene SRF) was “+58%”, the “% increase by Amp.” value ([1]; gene STAT1) was “+85%” and the “% increase by Amp.” value ([1]; gene STAT4) was “+11%”. For the same molecule, the “% increase by Amp.” value ([1]; gene STAT6) was “no change”, the “% increase by Amp.” value ([1]; gene TGFBR3) was “+139%” and the “% increase by Amp.” value ([1]; gene TGIF, A low expression) was “+72%”. For the same molecule, the “% increase by Amp.” value ([1]; gene TLR2, A low expression) was “+419%”, the “% increase by Amp.” value ([1]; gene TNFRSF11A, A low expression) was “+81%” and the “% increase by Amp.” value ([1]; gene TNFα) was “+39%”. For the same molecule, the “% increase by Amp.” value ([1]; gene TRAF5, A low expression) was “+47%”, the “% increase by Amp.” value ([1]; gene TRAF6, A low expression) was “+39%” and the “% increase by Amp.” value ([1]; gene YY1) was “+152%”. For the same molecule, the “severity of adoptive EAE” value [2] was “did not increase the severity of EAE”.
